Reference: PubChem BioAssay AID330 (DTP/NCI, 2004)
“And” between values parts separate entries of the source, which are not always exact repeats. Equal entries are not always repeated. Inconclusive results and toxic doses are left out.

System: P388 leukemia ip, CD2F1 mice, survival T/C
Assay: NCI In Vivo Anticancer Drug Screen. Data for tumor model P388 Leukemia (intraperitoneal) in CD2F1 (CDF1) mice
Conditions: endpoint: median survival time, higher = longer survival
Procedure, shortened: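 Mice carrying the transplanted tumor received test compound or vehicle. Survival was recorded in each group, and the value is the treated-group measurement divided by that of the vehicle-treated control group.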

[1] = dose: 50.0 mg/kg/injection, schedule: Q01DX009 (ip), vehicle: saline with Tween-80
[2] = dose: 100.0 mg/kg/injection, schedule: Q01DX009 (ip), vehicle: saline with Tween-80
[3] = dose: 200.0 mg/kg/injection, schedule: Q01DX009 (ip), vehicle: saline with Tween-80
[4] = dose: 50.0 mg/kg/injection, schedule: Q01DX005 (ip), vehicle: saline with Tween-80
[5] = dose: 100.0 mg/kg/injection, schedule: Q01DX005 (ip), vehicle: saline with Tween-80
[6] = dose: 200.0 mg/kg/injection, schedule: Q01DX005 (ip), vehicle: saline with Tween-80
[7] = dose: 25.0 mg/kg/injection, schedule: Q01DX009 (ip), vehicle: saline with Tween-80
[8] = dose: 25.0 mg/kg/injection, schedule: Q01DX009 (ip), vehicle: Klucel (hydroxypropylcellulose) (HPC)
[9] = dose: 50.0 mg/kg/injection, schedule: Q01DX009 (ip), vehicle: Klucel (hydroxypropylcellulose) (HPC)
[10] = dose: 100.0 mg/kg/injection, schedule: Q01DX009 (ip), vehicle: Klucel (hydroxypropylcellulose) (HPC)
[11] = dose: 50.0 mg/kg/injection, schedule: Q01DX005 (ip), vehicle: saline
[12] = dose: 100.0 mg/kg/injection, schedule: Q01DX005 (ip), vehicle: saline
[13] = dose: 200.0 mg/kg/injection, schedule: Q01DX005 (ip), vehicle: saline

## COc1cccc2c1C(=O)c1c(O)c3c(c(O)c1C2=O)C[C@@](O)(C(=O)COC(=O)c1cccnc1)C[C@@H]3OC1CC(N)C(O)C(C)O1 (stereo partly drawn)
dose: 0.25 mg/kg/injection, schedule: Q04DX003 (ip), vehicle: saline
  T/C: 114 % of control
dose: 0.5 mg/kg/injection, schedule: Q01DX009 (ip), vehicle: saline with Tween-80
  T/C: 118 % of control
dose: 0.5 mg/kg/injection, schedule: Q01DX009 (ip), vehicle: water
  T/C: 163 % of control
dose: 0.5 mg/kg/injection, schedule: Q04DX003 (ip), vehicle: saline
  T/C: 113 % of control
dose: 0.5 mg/kg/injection, schedule: Q04DX003 (ip), vehicle: water
  T/C: 109 % of control
dose: 1.0 mg/kg/injection, schedule: Q01DX009 (ip), vehicle: saline with Tween-80
  T/C: 122 % of control
dose: 1.0 mg/kg/injection, schedule: Q01DX009 (ip), vehicle: water
  T/C: 167 % of control
dose: 1.0 mg/kg/injection, schedule: Q04DX003 (ip), vehicle: saline
  T/C: 116 % of control and 122 % of control
dose: 1.0 mg/kg/injection, schedule: Q04DX003 (ip), vehicle: water
  T/C: 119 % of control
dose: 1.32 mg/kg/injection, schedule: Q01DX009 (ip), vehicle: saline sonified
  T/C: 209 % of control
dose: 2.0 mg/kg/injection, schedule: Q01DX009 (ip), vehicle: saline sonified
  T/C: 209 % of control
dose: 2.0 mg/kg/injection, schedule: Q01DX009 (ip), vehicle: water
  T/C: 229 % of control
dose: 2.0 mg/kg/injection, schedule: Q04DX003 (ip), vehicle: saline
  T/C: 108 % of control
dose: 2.0 mg/kg/injection, schedule: Q04DX003 (ip), vehicle: water
  T/C: 119 % of control
dose: 3.0 mg/kg/injection, schedule: Q01DX009 (ip), vehicle: saline sonified
  T/C: 104 % of control
dose: 4.0 mg/kg/injection, schedule: Q01DX009 (ip), vehicle: water
  T/C: 102 % of control
dose: 4.0 mg/kg/injection, schedule: Q04DX003 (ip), vehicle: saline
  T/C: 113 % of control
dose: 4.0 mg/kg/injection, schedule: Q04DX003 (ip), vehicle: water
  T/C: 119 % of control
dose: 8.0 mg/kg/injection, schedule: Q04DX003 (ip), vehicle: saline
  T/C: 118 % of control
dose: 8.0 mg/kg/injection, schedule: Q04DX003 (ip), vehicle: water
  T/C: 172 % of control
dose: 16.0 mg/kg/injection, schedule: Q04DX003 (ip), vehicle: water
  T/C: 166 % of control
dose: 64.0 mg/kg/injection, schedule: Q04DX003 (ip), vehicle: saline
  T/C: 95 % of control

## COc1ccc(-c2cc(=O)c3ccc4c(O)cccc4c3o2)cc1
[1]
  T/C: 94 % of control
[2]
  T/C: 100 % of control
[3]
  T/C: 97 % of control
dose: 400.0 mg/kg/injection, schedule: Q01DX009 (ip), vehicle: saline with Tween-80
  T/C: 90 % of control

## CCCCCCCCCCCCCCCCSC1=CC(=O)C(OC)=C(OC)C1=O
dose: 2.0 mg/kg/injection, schedule: Q01DX009 (ip), vehicle: Klucel (hydroxypropylcellulose) (HPC)
  T/C: 97 % of control
dose: 8.0 mg/kg/injection, schedule: Q01DX009 (ip), vehicle: Klucel (hydroxypropylcellulose) (HPC)
  T/C: 98 % of control
dose: 16.0 mg/kg/injection, schedule: Q01DX009 (ip), vehicle: Klucel (hydroxypropylcellulose) (HPC)
  T/C: 100 % of control
dose: 32.0 mg/kg/injection, schedule: Q01DX009 (ip), vehicle: Klucel (hydroxypropylcellulose) (HPC)
  T/C: 105 % of control

## c1ccc2c(c1)c1cccc3sc4cccc2c4c31
[4]
  T/C: 99 % of control
[5]
  T/C: 96 % of control
[6]
  T/C: 92 % of control

## CC(C)SC(=S)Nc1ccc(F)cc1
dose: 50.0 mg/kg/injection, schedule: Q01DX009 (ip), vehicle: suspension in saline
  T/C: 101 % of control
dose: 100.0 mg/kg/injection, schedule: Q01DX009 (ip), vehicle: suspension in saline
  T/C: 101 % of control
dose: 200.0 mg/kg/injection, schedule: Q01DX009 (ip), vehicle: suspension in saline
  T/C: 107 % of control

## Cc1cc2c(c3ccccc13)C(=N/N=C(N)N)/C(=N/N=C(N)N)C2
dose: 6.25 mg/kg/injection, schedule: Q01DX009 (ip), vehicle: saline with Tween-80
  T/C: 101 % of control
dose: 12.5 mg/kg/injection, schedule: Q01DX009 (ip), vehicle: saline with Tween-80
  T/C: 108 % of control
dose: 25.0 mg/kg/injection, schedule: Q01DX001 (ip), vehicle: saline with Tween-80
  T/C: 105 % of control
[7]
  T/C: 101 % of control
dose: 50.0 mg/kg/injection, schedule: Q01DX001 (ip), vehicle: saline with Tween-80
  T/C: 97 % of control

## Cc1cccc(Br)[n+]1[O-]
dose: 12.5 mg/kg/injection, schedule: Q01DX001 (ip), vehicle: saline
  T/C: 100 % of control
dose: 25.0 mg/kg/injection, schedule: Q01DX001 (ip), vehicle: saline
  T/C: 109 % of control
dose: 50.0 mg/kg/injection, schedule: Q01DX001 (ip), vehicle: saline
  T/C: 100 % of control

## O=C1c2ccccc2CCCC12OC2c1cccnc1 (stereo not drawn)
[8]
  T/C: 100 % of control
[9]
  T/C: 100 % of control
[10]
  T/C: 104 % of control

## COC1=CC(C)C2CC3OC(=O)CC4C(C)C(=O)C(O)C(C2(C)C1=O)C34C (stereo not drawn)
dose: 2.5 mg/kg/injection, schedule: Q01DX009 (ip), vehicle: Klucel (hydroxypropylcellulose) (HPC)
  T/C: 90 % of control
dose: 5.0 mg/kg/injection, schedule: Q01DX009 (ip), vehicle: Klucel (hydroxypropylcellulose) (HPC)
  T/C: 100 % of control
dose: 10.0 mg/kg/injection, schedule: Q01DX009 (ip), vehicle: Klucel (hydroxypropylcellulose) (HPC)
  T/C: 106 % of control
dose: 20.0 mg/kg/injection, schedule: Q01DX009 (ip), vehicle: Klucel (hydroxypropylcellulose) (HPC)
  T/C: 98 % of control

## CCCCC(NC(=O)c1ccccc1)C(=O)O (stereo not drawn)
[1]
  T/C: 92 % of control
[2]
  T/C: 100 % of control
[3]
  T/C: 98 % of control

## CCOC(=O)NC(C)(C)CN(C(=O)OCC)C(C)C
dose: 100.0 mg/kg/injection, schedule: Q04DX003 (ip), vehicle: other
  T/C: 95 % of control
dose: 200.0 mg/kg/injection, schedule: Q04DX003 (ip), vehicle: other
  T/C: 100 % of control
dose: 400.0 mg/kg/injection, schedule: Q04DX003 (ip), vehicle: other
  T/C: 95 % of control

## O=C(Nc1ccccc1)Nc1ccc2c(c1)C(=O)CCCC2
[4]
  T/C: 96 % of control
[5]
  T/C: 93 % of control
[6]
  T/C: 94 % of control

## Nc1nc(N)c(CCCOc2ccc(C(=O)O)cc2)c(N)n1
dose: 60.0 mg/kg/injection, schedule: Q01DX005 (ip), vehicle: Klucel (hydroxypropylcellulose) (HPC)
  T/C: 93 % of control
dose: 120.0 mg/kg/injection, schedule: Q01DX005 (ip), vehicle: Klucel (hydroxypropylcellulose) (HPC)
  T/C: 97 % of control

## CCCCCCC1OCN2CCCCC12 (stereo not drawn)
[11]
  T/C: 105 % of control
[12]
  T/C: 107 % of control
[13]
  T/C: 109 % of control

## CC1(C)CC2(OC2c2ccccc2)C(=O)c2ccccc21 (stereo not drawn)
[8]
  T/C: 89 % of control
[9]
  T/C: 89 % of control
[10]
  T/C: 87 % of control
dose: 400.0 mg/kg/injection, schedule: Q01DX009 (ip), vehicle: Klucel (hydroxypropylcellulose) (HPC)
  T/C: 88 % of control

## Cn1c(=O)c2c(nc([N+](=O)[O-])n2C)n(C)c1=O
dose: 100.0 mg/kg/injection, schedule: Q04DX003 (ip), vehicle: saline
  T/C: 104 % of control
dose: 200.0 mg/kg/injection, schedule: Q04DX003 (ip), vehicle: saline
  T/C: 100 % of control

## CC(=O)NCCSSCCCCS(=O)O
[11]
  T/C: 106 % of control and 115 % of control
[12]
  T/C: 118 % of control and 121 % of control
[13]
  T/C: 124 % of control

## CCCC1CC[N-]CC1.CCCC1CC[N-]CC1.[Cl][Pt+2][Cl]
dose: 11.0 mg/kg/injection, schedule: Q01DX009 (ip), vehicle: saline with Tween-80
  T/C: 100 % of control
dose: 16.5 mg/kg/injection, schedule: Q01DX009 (ip), vehicle: saline with Tween-80
  T/C: 110 % of control
dose: 22.0 mg/kg/injection, schedule: Q01DX009 (ip), vehicle: saline with Tween-80
  T/C: 110 % of control
[7]
  T/C: 115 % of control
dose: 33.0 mg/kg/injection, schedule: Q01DX009 (ip), vehicle: saline with Tween-80
  T/C: 110 % of control
dose: 37.5 mg/kg/injection, schedule: Q01DX009 (ip), vehicle: saline with Tween-80
  T/C: 115 % of control
[1]
  T/C: 120 % of control

## CCC#CCN(CCCC)CCCC
[4]
  T/C: 106 % of control
[5]
  T/C: 103 % of control
